In patent US11118208B2, “Methods for modulating protein galactosylation profiles of recombinant proteins using peracetyl galactose” (ARES TRADING S.A., priority 2016, dated 2021):

Tests used:
[1] = system: galactosylation of mAb1 antibody (cell line 1); test: Glycosylation profile of mAb1, supplementation as feed after the start of the culture (CGE-LIF); type: cell-based, Chinese hamster
Text: (§1) For example 4: Additional experiments were run in similar conditions, except with regard to supplementation with α- or β-2-F-peracetyl galactose. In such a case, a serum-free chemically defined culture medium was used, supplemented with α- or β-2-F-peracetyl galactose as mentioned thereafter in Table 2.
(§2) Glycosylation profiles were established by capillary gel electrophoresis with laser-induced fluorescence (CGE-LIF; for DWP and for Shake tubes experiments) or by Ultra Performance Liquid Chromatography-2-amino-benzamide labelling technique (2AB-UPLC; for Shake tubes experiments). Groups of glycans were defined as thereafter in Table 3.

[2] = system: galactosylation of mAb1 antibody (mAb1 cells); test: Glycosylation profile of mAb1 produced in TubeSpin (CGE-LIF); type: cell-based, Chinese hamster
Experimental: (§3) First assays were performed with an antibody produced in a CHO cell line: CHO-S cells expressing IgG1 mAb1, herein “Cells mAb1” or “mAb1 cells”. “mAb1” is a fully human monoclonal antibody directed against a soluble protein. Its isoelectric point (pI) is about 8.20-8.30.
(§4) For examples 1-3: A serum-free chemically defined culture medium was used. It was used as it is, or it was supplemented with α- or β-2-F-peracetyl galactose (herein α- or β-2F-pGal; Biosynth & AX Molecules) at different concentrations (0-200 μM before seeding). The concentrations indicated on FIGS. 1, 2, 3 and 4 are the concentrations in α- or β-2F-pGal in the culture medium at day 0, just before the inoculation. The culture medium was fed, on a regular basis, with a chemically defined feed medium, as well as with glucose in order to keep said glucose level in the range of >0 to about 8 g/L (feeds are done at days 3, 5, 7, 10 and 12).
(§5) The cultures were performed in deepwell plates (DWP) with a working volume of 450 μL. They were incubated at 36.5° C., 5% de CO2, 90% humidity and shaken at 320 rpm. Each of the fed-batch culture lasted 14 days. It is well known that experiments in DWP are artificial, although they allow a first screening of culture conditions. In order to confirm that the results obtained in DWP were reproducible at higher scale, similar experiments were also run in TubeSpin® (also called herein shake tubes or ST), with a working volume of 30 mL cell culture (same culture condition than for deepwell plates).
as §2

[3] = system: mAb1 cells (CHO-S cells expressing IgG1 mAb1); test: Fed-batch culture of mAb1 cells in deepwell plates (DWP): viable cell density, viability, titer; type: cell-based, Chinese hamster
Experimental: as §3
(§6) Cells expressing mAb1 were inoculated at 0.3×10^6 cells per millilitre (mL), whereas Cells expressing mAb2 were inoculated at 0.2×10^6 cells per millilitre (mL).
as §4, §5
For DWP experiments, viable cell density and viability were measured with the Guava easyCyte® flow cytometer. Antibody titers were measured with the fortéBIO Octet®.
(§7) The cells were cultivated and the results analysed as disclosed in the material and method section. It is noted that the controls (or control conditions) according to the present invention correspond to cells grown without peracetyl galactose.

mAb1 cells (cell line 1) = test: Fed-batch culture of mAb1 cells, supplementation as feed after the start of the culture: cell density, viability, titer; type: cell-based, Chinese hamster
Experimental: as §1, §5
(§8) For TubeSpin® experiments, viable cell density and viability were measured with the ViCell®. Antibody titers were measured using Biacore®.
Rather than supplementing the medium prior to inoculation, it was decided to start the galactose analog addition on day 3, 5 or 7 (respectively β-2F-pGal-d3, β-2F-pGal-d5 and β-2F-pGal-d7; see Table 2). Cell line 1 was used for these experiments. […] The peak cell densities were reached on day 7. No significant difference between the control and the β-2F-pGal-d3 supplemented cultures was observed. They both levelled off at 20.8 and 21.2×10^6 viable cells/mL, respectively. […] Overall, it can be assumed that the presence of β-2F-p-galactose induced limited changes on cell growth until day 7. In the second half of the culture, both the cell density and the viability (FIG. 11B) are correlated with the feed timing. Supplementation on day 3 most strongly impacted the course of the culture. At harvest, the cell density amounted to 9.8×10^6 viable cells/mL (control: 11.8×10^6 viable cells/mL). […] Feed addition on day 5 and 7, respectively, entailed viabilities on day 14 of 78 and 90% (control: 93%). According to FIG. 11C, no clear titer trend came forward. Early supplementation induced a slight titer increase on days 7 and 10, but then reduced productivity at later stages of the culture.

[4] = system: galactosylation of mAb1 antibody (mAb1 cells); test: Glycosylation profile of mAb1 produced in DWP (CGE-LIF); type: cell-based, Chinese hamster
Experimental: as §3, §4, §5, §2, §7

[5] = system: mAb1 cells (CHO-S cells expressing IgG1 mAb1); test: Fed-batch culture of mAb1 cells in TubeSpin (shake tubes): viable cell density, viability, titer; type: cell-based, Chinese hamster; settings: shake tubes
Experimental: as §3, §6, §4, §5, §8

CDC activity = settings: degalactosylated antibody; cited from earlier work

Compound: CC(=O)OC[C@H]1O[C@@H](OC(C)=O)[C@H](F)[C@@H](OC(C)=O)[C@H]1OC(C)=O [β-2F-pGal, α/β-D-galactopyranose, 2-deoxy-2-fluoro-,1,3,4,6-tetraacetate]
- effects on the other glycan species ([1]; feed after the start of the culture): remained small
- di-galactosylated entity decrease ([1]; feed from day 3): −0.41
- mono-galactosylated species drop ([1]; feed from day 3): −8.0%
- overall galactosylation decrease (absolute change vs control) ([1]; feed from day 3 (β-2F-pGal-d3)): −8.5%
- di-galactosylated entity decrease ([1]; feed from day 5): −0.33
- mono-galactosylated species drop ([1]; feed from day 5): −6.7%
- overall galactosylation decrease (absolute change vs control) ([1]; feed from day 5 (β-2F-pGal-d5)): −7.0%
- di-galactosylated entity decrease ([1]; feed from day 7): −0.19
- mono-galactosylated species drop ([1]; feed from day 7): −4.4%
- overall galactosylation decrease (absolute change vs control) ([1]; feed from day 7 (β-2F-pGal-d7)): −4.6%
- total level of galactosylation decreased by (Example 2.2) ([2]; 60 μM β anomer, shake tubes, CGE-LIF, unit not given): −5.0
- absolute change of galactosylated N-oligosaccharides compared to the control ([2]; 60 μM, TubeSpin): around 4%
- monogalactosylated form changed by (Example 2.2) ([2]; 60 μM, shake tubes, CGE-LIF, listed as β-2F-peracetyl-galactose): −4.7%
- decrease of titers comparing to control ([3]; concentration higher than 60 μM): about 1.2 factor
- impact on protein titre ([3]; concentrations between 30 and 60): no impact on protein titre
- impact on cell growth ([3]; concentrations of about 60 μM and higher): negative impact on cell growth
- impact on cell growth until the end of culture ([3]; concentrations up to 30 μM in medium): no impact on cell growth
- protein titer compared to the control ([3]; media concentration up to 60 μM, day 10 and day 14): stays above the protein titer of the control
- impact on cell density, cell viability and protein titer ([3]; media concentrations below 30 μM): do not impact
- cell density at harvest (mAb1 cells (cell line 1); feed from day 3 (β-2F-pGal-d3)): 9.8 ×106 viable cells/mL
- protein titer (yield of the culture) (mAb1 cells (cell line 1); feed from day 3 (β-2F-pGal-d3)): 2560 mg/L
- viability (mAb1 cells (cell line 1); feed from day 3 (β-2F-pGal-d3), second half of culture): below 60%
- peak cell density (day 7) (mAb1 cells (cell line 1); feed from day 3 (β-2F-pGal-d3: days 3, 5, 7, 10)): 21.2 ×106 viable cells/mL
- protein titer (yield of the culture) (mAb1 cells (cell line 1); feed from day 5 (β-2F-pGal-d5)): 3215 mg/L
- viability on day 14 (mAb1 cells (cell line 1); feed from day 5 (β-2F-pGal-d5)): 78%
- maximum cell density (mAb1 cells (cell line 1); feed from day 5 (β-2F-pGal-d5: days 5, 7, 10)): 18.6 ×106 viable cells/mL
- protein titer (yield of the culture) (mAb1 cells (cell line 1); feed from day 7 (β-2F-pGal-d7)): 2100 mg/L
- viability on day 14 (mAb1 cells (cell line 1); feed from day 7 (β-2F-pGal-d7: days 7, 10)): 90%
- G1F absolute change compared to the control ([4]; 30 μM): 1.1%
- G2F absolute change compared to the control ([4]; 30 μM): 0.20%
- absolute change in galactosylated N-oligosaccharide compared to the control ([4]; 30 μM): 2.2%
- relative decrease of galactosylated N-oligosaccharides compared to control ([4]; 30 μM): 22%
- galactosylated N-oligosaccharides of the protein ([4]; 30 μM in medium): 8.3%
- G1F absolute change compared to the control ([4]; 60 μM): 2.5%
- G2F absolute change compared to the control ([4]; 60 μM): 0.30%
- absolute change in galactosylated N-oligosaccharide compared to the control ([4]; 60 μM): 4.2%
- relative decrease of galactosylated N-oligosaccharides compared to control ([4]; 60 μM): 40%
- galactosylated N-oligosaccharides of the protein ([4]; 60 μM in medium): 6.4%
- G1F absolute change compared to the control ([4]; 120 μM): 3.1%
- G2F absolute change compared to the control ([4]; 120 μM): 0.33%
- absolute change in galactosylated N-oligosaccharide compared to the control ([4]; 120 μM): 5.4%
- relative decrease of galactosylated N-oligosaccharides compared to control ([4]; 120 μM): 52%
- galactosylated N-oligosaccharides of the protein ([4]; 120 μM in medium): 5.1%
- G1F absolute change compared to the control ([4]; 200 μM): 4.4%
- G2F absolute change compared to the control ([4]; 200 μM): 0.40%
- absolute change in galactosylated N-oligosaccharide compared to the control ([4]; 200 μM): 6.7%
- relative decrease of galactosylated N-oligosaccharides compared to control ([4]; 200 μM): 64%
- galactosylated N-oligosaccharides of the protein ([4]; 200 μM in medium): 3.9%
- inhibition effect on galactosylation ([4]; below 30): neither α- or β-2F-pGal does have a significant inhibition effect on galactosylation
- inhibition effect on galactosylation ([4]; concentrations higher than 30 μM): a significant inhibition effect is observed
- peak viable cell density at day 7 ([5]; 60 μM): 12.8 ×10^6 viable cells/mL
- product titer at the end of the culture (day 14) ([5]; 60 μM, listed as β-2F-p-galactose): 2225 mg/L
- effect on cell culture performance ([5]; between 0 and 90 μM α-2F-p-galactose, 60 μM β-2F-p-galactose): No detrimental effect
- protein titer compared to the control at culture days 5, 7, 10, 12 and 14 ([5]; α 30-90 μM, β 60 μM, listed as β-2F-p-galactose): comparable to the control

Compound: Rituxan: recombinant IgG whose degalactosylation was studied for CDC (Hodoniczky et al., 2005)
- change of CDC after degalactosylation relative to unmodified control Mab (CDC activity): reduced CDC by approximately half
